In the supplement of paper PMC10307832:

Experiments:
Assay in all cases: relative viability (nuclei count vs DMSO), 5 days (fraction); higher = more cells survive
IU1-47 + Phenformin = compound: CC1=CC(=C(N1C2=CC=C(C=C2)Cl)C)C(=O)CN3CCCCC3 [IU1-47] + N=C(N)NC(=N)NCCc1ccccc1 [Phenformin] (partner 250 µM)
Method in brief: (§1)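 The day after seeding in 1536-well plates, lung cancer cell lines were treated by pin tool with a single drug, or with a fixed anchor-drug dose together with five library-drug doses (not always all listed) in √10 steps. After 5 days, a combined fix-and-stain solution (final 0.05% Triton X-100, 1% formaldehyde, 1 ug/ml Hoechst) was added. Nuclei counted on 4× images gave relative viability as treated counts over vehicle counts, reported as the median of duplicate plates.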

FG-4592 + Trametinib = compound: Cc1nc(C(=O)NCC(=O)O)c(O)c2ccc(Oc3ccccc3)cc12 [FG-4592] + CC(=O)Nc1cccc(-n2c(=O)n(C3CC3)c(=O)c3c(Nc4ccc(I)cc4F)n(C)c(=O)c(C)c32)c1 [Trametinib] (partner 0.02 µM)
Method in brief: as §1

FG-4592 + Pictilisib = compound: Cc1nc(C(=O)NCC(=O)O)c(O)c2ccc(Oc3ccccc3)cc12 [FG-4592] + CS(=O)(=O)N1CCN(Cc2cc3nc(-c4cccc5[nH]ncc45)nc(N4CCOCC4)c3s2)CC1 [Pictilisib] (partner 1 µM)
Method in brief: as §1

FG-4592 + Vorinostat = compound: Cc1nc(C(=O)NCC(=O)O)c(O)c2ccc(Oc3ccccc3)cc12 [FG-4592] + O=C(CCCCCCC(=O)Nc1ccccc1)NO [Vorinostat] (partner 1 µM)
Method in brief: as §1

Cell Line	relative viability (IU1-47 + Phenformin; first compound 0.08 µM)	relative viability (IU1-47 + Phenformin; first compound 0.253 µM)	relative viability (IU1-47 + Phenformin; first compound 0.8 µM)	relative viability (IU1-47 + Phenformin; first compound 8 µM)	relative viability (FG-4592 + Trametinib; first compound 0.08 µM)	relative viability (FG-4592 + Trametinib; first compound 0.253 µM)	relative viability (FG-4592 + Trametinib; first compound 0.8 µM)	relative viability (FG-4592 + Trametinib; first compound 2.53 µM)	relative viability (FG-4592 + Trametinib; first compound 8 µM)	relative viability (FG-4592 + Pictilisib; first compound 0.08 µM)	relative viability (FG-4592 + Pictilisib; first compound 0.253 µM)	relative viability (FG-4592 + Pictilisib; first compound 0.8 µM)	relative viability (FG-4592 + Pictilisib; first compound 2.53 µM)	relative viability (FG-4592 + Pictilisib; first compound 8 µM)	relative viability (FG-4592 + Vorinostat; first compound 0.08 µM)	relative viability (FG-4592 + Vorinostat; first compound 0.253 µM)	relative viability (FG-4592 + Vorinostat; first compound 0.8 µM)	relative viability (FG-4592 + Vorinostat; first compound 2.53 µM)	relative viability (FG-4592 + Vorinostat; first compound 8 µM)	relative viability (IU1-47 + Phenformin; first compound 2.53 µM)
201T	0.419	0.435	0.486	0.362	0.691	0.695	0.719	0.772	0.708	0.642	0.644	0.584	0.695	0.675	0.905	0.933	0.807	0.972	0.993	
A549	0.165	0.105	0.144	0.0832						0.488	0.455	0.452	0.489	0.456						
A-427	0.342	0.313	0.306	0.229	0.772	0.724	0.677	0.72	0.723	0.674	0.739	0.503	0.661	0.742	0.84	0.85	0.845	0.806	0.78	
ABC-1	0.212	0.234	0.202	0.247						0.778		0.55	0.7	0.539	1.14	1.01		1.14	1.03	
BEN	0.263	0.24	0.27	0.275	0.916	0.913	0.783	0.879	0.871	0.442	0.485	0.429	0.561	0.459	0.558	0.566	0.459	0.546	0.547	
CAL-12T	0.525	0.576	0.613	0.554	0.367	0.307	0.301	0.29	0.219	0.516	0.494	0.221	0.555	0.523	0.624	0.583	0.651	0.585	0.496	0.472
COR-L23	0.414	0.45	0.472	0.492	0.678	0.519	0.608	0.508	0.355	0.812	0.617	0.849	0.685	0.728	0.414	0.373	0.427	0.337	0.457	0.438
COR-L 105	0.418	0.438	0.506	0.454	0.45	0.461	0.445	0.434	0.397	0.372	0.326	0.328	0.266	0.318	0.723	0.755	0.843	0.699	0.769	0.501
Calu-6										0.885	0.859	0.921	0.902	0.856						
ChaGo-K-1	0.464	0.545	0.428	0.451	0.953	0.79	0.899	0.846	0.931	0.769	0.714	0.452	0.791	0.544	0.694	0.819	0.687	0.758	0.693	0.579
EBC-1										0.401	0.371	0.417	0.387	0.335						
EKVX	0.24	0.262	0.263	0.252	0.318	0.352	0.334	0.332	0.24	0.395	0.377	0.478	0.428	0.441	0.869	0.619	0.64	0.706	0.784	0.259
EMC-BAC-2	0.548	0.569	0.53	0.409	0.939	0.892		0.845	0.88	0.439	0.476	0.396	0.564	0.445	0.43	0.467		0.561	0.366	0.627
EPLC-272H	0.294	0.298	0.23	0.243	0.288	0.232	0.234	0.303	0.308	0.276	0.26	0.28	0.37	0.434	0.41	0.487	0.41	0.559	0.472	
H3255	0.426	0.358	0.294	0.352	0.6	0.547	0.5	0.602	0.532	0.396	0.472	0.51	0.44	0.5	0.89	0.684	0.721	0.693	0.84	0.365
HARA	0.594	0.478	0.567	0.537				0.586	0.667	0.329	0.292		0.46	0.304	0.554	0.556	0.507	0.662	0.607	
HCC-15	0.482	0.497	0.557	0.432	0.41	0.359	0.352	0.395	0.412	0.65	0.723	0.738	0.729	0.784	0.975	0.796	0.776	0.82	0.829	0.491
HCC-44	0.167	0.183	0.143	0.183	1.06	1.08	1.1	0.991	1.08	0.569	0.609	0.498	0.614	0.602	1.03	1.05	1.2	1.16	1.11	0.221
HCC-78	0.679	0.691	0.671	0.617	0.719		0.741	0.578	0.743	0.219	0.248	0.182	0.222	0.225	0.488		0.434	0.376	0.523	0.671
